Measured values as given in US20230027985A1, “SUBSTITUTED HYDANTOINAMIDES AS ADAMTS7 ANTAGONISTS” (Bayer Aktiengesellschaft, priority 2019, published 2023).

How the values were obtained:
[1] = biological target: T1, Purified recombinant ADAMTS-7 (rat prodomain/human catalytic domain, SEQ ID No. 01 or 02) (Homo sapiens, UniProt Q9UKP4); assay: Assay for ADAMTS-7 enzymatic activity (FRET substrate cleavage); assay type: biochemical; conditions: FRET substrate SEQ ID No. 11, 120 min at 32° C.; read-out: ADAMTS7-IC50
T1 construct: rat ADAMTS-7 signal peptide + prodomain (rat 1-217, Q1EHB3) (N); 2xStrep tag (C); 6xHis tag (C); made in house; host or cells: Expi293 cells
T1 sequence (Q9UKP4 237-537): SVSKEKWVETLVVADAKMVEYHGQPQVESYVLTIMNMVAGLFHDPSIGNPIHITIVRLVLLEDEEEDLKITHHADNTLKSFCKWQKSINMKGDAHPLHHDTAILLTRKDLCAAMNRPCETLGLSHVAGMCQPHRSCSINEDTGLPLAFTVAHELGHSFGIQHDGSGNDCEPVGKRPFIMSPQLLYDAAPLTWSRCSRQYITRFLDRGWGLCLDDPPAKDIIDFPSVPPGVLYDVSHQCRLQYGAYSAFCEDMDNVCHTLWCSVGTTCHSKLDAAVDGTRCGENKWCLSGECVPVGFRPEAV
Outline: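 About 20 nM enzyme in 20 mM HEPES pH 8.0, 150 mM NaCl, 5 mM CaCl2, 0.004% Brij and 10 μM ZnCl2 was mixed with compound in DMSO and a QXL520-quenched FRET peptide from thrombospondin-1 (275-289). After 120 min at 32 °C, fluorescence was read at 485/520 nm. IC50 came from percent inhibition versus concentration.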

ADAMTS4 = biological target: T2, ADAMTS4 (Homo sapiens, UniProt O75173); assay: Selectivity assay for ADAMTS-7 modulators (FRET), ADAMTS4; assay type: biochemical; conditions: 50 nM enzyme (R&D 4307-AD), 1 μM Dabcyl/Edans FRET substrate, 120 min at 32° C.
T2 construct: purchased R&D 4307-AD
T2 sequence (O75173 213-685 limits assumed): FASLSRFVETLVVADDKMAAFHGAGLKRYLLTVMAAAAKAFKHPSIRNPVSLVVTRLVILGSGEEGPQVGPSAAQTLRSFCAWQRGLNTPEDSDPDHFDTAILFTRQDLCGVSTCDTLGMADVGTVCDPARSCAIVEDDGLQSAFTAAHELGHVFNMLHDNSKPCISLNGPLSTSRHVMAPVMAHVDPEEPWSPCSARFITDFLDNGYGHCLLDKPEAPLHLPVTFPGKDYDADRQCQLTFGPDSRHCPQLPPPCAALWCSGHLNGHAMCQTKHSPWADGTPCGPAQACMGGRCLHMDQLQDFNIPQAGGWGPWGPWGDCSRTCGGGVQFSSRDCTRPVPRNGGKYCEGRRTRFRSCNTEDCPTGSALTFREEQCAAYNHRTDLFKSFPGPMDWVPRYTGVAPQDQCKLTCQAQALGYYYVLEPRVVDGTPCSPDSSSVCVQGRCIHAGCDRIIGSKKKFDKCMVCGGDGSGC
Outline: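 Enzyme in 50 mM Tris pH 7.5, 150 mM NaCl, 10 mM CaCl2, 0.05% Brij, preincubated with compound in DMSO; reaction started with FRET substrate. Fluorescence increase read after 120 min at 32° C; IC50 from percent inhibition versus compound concentration.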

SMILES	IC50 [1] [nM]	IC50 (ADAMTS4) [nM]
CCCC1(CNC(=O)c2cnn(-c3ccc(F)cc3)n2)NC(=O)NC1=O (stereo not drawn) [Example 73, ent-N-[(2,5-dioxo-4-propylimidazolidin-4-yl)methyl]-2-(4-fluorophenyl)-2H-1,2,3-triazole-4-carboxamide]	60	5100
O=C1NC(=O)C(CNC(=O)c2cnn(-c3ccc(F)cc3)n2)(C2CCCC2)N1 (stereo not drawn) [Example 74, ent-N-[(4-cyclopentyl-2,5-dioxoimidazolidin-4-yl)methyl]-2-(4-fluorophenyl)-2H-1,2,3-triazole-4-carboxamide]	33	5900
O=C1NC(=O)C(CNC(=O)c2cnn(-c3ccc(F)cc3)n2)(C2CCCCC2)N1 (stereo not drawn) [Example 75, ent-N-[(4-cyclohexyl-2,5-dioxoimidazolidin-4-yl)methyl]-2-(4-fluorophenyl)-2H-1,2,3-triazole-4-carboxamide]	14	4100
CC(C)C1(CNC(=O)c2cnn(-c3ccc(F)cc3)n2)NC(=O)NC1=O (stereo not drawn) [Example 76, ent-N-[(2,5-dioxo-4-(propan-2-yl)imidazolidin-4-yl)methyl]-2-(4-fluorophenyl)-2H-1,2,3-triazole-4-carboxamide]	8	2770
O=C1NC(=O)C(CNC(=O)c2cnn(-c3ccc(F)cc3)n2)(C2CCC2)N1 (stereo not drawn) [Example 77, ent-N-[(4-cyclobutyl-2,5-dioxoimidazolidin-4-yl)methyl]-2-(4-fluorophenyl)-2H-1,2,3-triazole-4-carboxamide]	24	4380
CCCCC1(CNC(=O)c2cnn(-c3ccccc3)n2)NC(=O)NC1=O (stereo not drawn) [Example 78, ent-N-[(4-butyl-2,5-dioxoimidazolidin-4-yl)methyl]-2-phenyl-2H-1,2,3-triazole-4-carboxamide]	191	19000
O=C1NC(=O)C(CNC(=O)c2cnn(-c3ccccc3)n2)(C2CCC2)N1 (stereo not drawn) [Example 79, ent-N-[(4-cyclobutyl-2,5-dioxoimidazolidin-4-yl)methyl]-2-phenyl-2H-1,2,3-triazole-4-carboxamide]	78	11000
O=C1NC(=O)C(CNC(=O)c2nc(-c3ccccc3)no2)(CC2CC2)N1 (stereo not drawn) [Example 80, ent-N-[(4-(cyclopropylmethyl)-2,5-dioxoimidazolidin-4-yl)methyl]-3-phenyl-1,2,4-oxadiazole-5-carboxamide]	250	2900
CCCCC1(CNC(=O)c2cnn(-c3ccc(F)cc3)n2)NC(=O)NC1=O (stereo not drawn) [Example 82]	48	3100
O=C1NC(=O)C(CNC(=O)c2cnn(-c3ccccc3)n2)(C2CCCC2)N1 (stereo not drawn) [Example 83, ent-N-[(4-cyclopentyl-2,5-dioxoimidazolidin-4-yl)methyl]-2-phenyl-2H-1,2,3-triazole-4-carboxamide]	120	11000
O=C1NC(=O)C(CNC(=O)c2cnn(-c3ccc(F)cc3F)n2)(C2CCC2)N1 (stereo not drawn) [Example 86, ent-N-{[4-cyclobutyl-2,5-dioxoimidazolidin-4-yl]methyl}-2-(2,4-difluorophenyl)-2H-1,2,3-triazole-4-carboxamide]	63	8500
O=C1NC(=O)C(CNC(=O)c2cnn(-c3cc(F)c(F)c(F)c3)n2)(C2CCC2)N1 (stereo not drawn) [Example 90, ent-N-[(4-cyclobutyl-2,5-dioxoimidazolidin-4-yl)methyl]-2-(3,4,5-trifluorophenyl)-2H-1,2,3-triazole-4-carboxamide]	16	3100
O=C1NC(=O)C(CNC(=O)c2cnn(-c3cccc(F)c3)n2)(C2CCC2)N1 (stereo not drawn) [Example 93, ent-N-[(4-cyclobutyl-2,5-dioxoimidazolidin-4-yl)methyl]-2-(3-fluorophenyl)-2H-1,2,3-triazole-4-carboxamide]	8	2200
O=C1NC(=O)C(CNC(=O)c2cnn(-c3ccc(F)c(F)c3)n2)(C2CCC2)N1 (stereo not drawn) [Example 94, ent-N-[(4-cyclobutyl-2,5-dioxoimidazolidin-4-yl)methyl]-2-(3,4-difluorophenyl)-2H-1,2,3-triazole-4-carboxamide]	6	890
O=C1NC(=O)[C@](CNC(=O)c2cnn(-c3cc(F)c(F)c(F)c3)n2)(C2CC2)N1 [Example 98, N-{[(4R)-4-cyclopropyl-2,5-dioxoimidazolidin-4-yl]methyl}-2-(3,4,5-trifluorophenyl)-2H-1,2,3-triazole-4-carboxamide]	25	1100
O=C1NC(=O)[C@](CNC(=O)c2cnn(-c3ncccc3F)n2)(C2CC2)N1 [Example 101, N-{[(4R)-4-cyclopropyl-2,5-dioxoimidazolidin-4-yl]methyl}-2-(3-fluoropyridin-2-yl)-2H-1,2,3-triazole-4-carboxamide]	7	14000
CCC(C)C1(CNC(=O)c2cnn(-c3ccc(F)cc3)n2)NC(=O)NC1=O (stereo not drawn) [Example 102, diamix-N-[(4-sec-butyl-2,5-dioxoimidazolidin-4-yl)methyl]-2-(4-fluorophenyl)-2H-1,2,3-triazole-4-carboxamide]	62	2900
O=C1NC(=O)[C@](CNC(=O)c2cnn(-c3nc4ccccc4s3)n2)(C2CC2)N1 [Example 105, 2-(1,3-benzothiazol-2-yl)-N-{[(4R)-4-cyclopropyl-2,5-dioxoimidazolidin-4-yl]methyl}-2H-1,2,3-triazole-4-carboxamide]	190	11000
O=C1NC(=O)[C@](CNC(=O)c2cnn(-c3ccc(OC(F)(F)F)cc3)n2)(C2CC2)N1 [Example 106, N-{[(4R)-4-cyclopropyl-2,5-dioxoimidazolidin-4-yl]methyl}-2-[4-(trifluoromethoxy)phenyl]-2H-1,2,3-triazole-4-carboxamide]	190	> 50000
O=C1NC(=O)C(CNC(=O)c2cnn(-c3ccc(F)cc3)n2)(c2nccs2)N1 (stereo not drawn) [Example 114, ent-N-{[2,5-dioxo-4-(1,3-thiazol-2-yl)imidazolidin-4-yl]methyl}-2-(4-fluorophenyl)-2H-1,2,3-triazole-4-carboxamide]	15	1400
CC(C)C1(CNC(=O)c2cnn(-c3cc(F)c(F)c(F)c3)n2)NC(=O)NC1=O (stereo not drawn) [Example 117, ent-N-[(4-isopropyl-2,5-dioxoimidazolidin-4-yl)methyl]-2-(3,4,5-trifluorophenyl)-2H-1,2,3-triazole-4-carboxamide]	20	3300
O=C1NC(=O)[C@](CNC(=O)c2cnn(-c3cnsc3)n2)(C2CC2)N1 [Example 132, N-{[(4R)-4-cyclopropyl-2,5-dioxoimidazolidin-4-yl]methyl}-2-(1,2-thiazol-4-yl)-2H-1,2,3-triazole-4-carboxamide]	230	7400
O=C1NC(=O)[C@](CNC(=O)c2cnn(-c3ncc(F)cc3F)n2)(C2CC2)N1 [Example 134, N-{[(4R)-4-cyclopropyl-2,5-dioxoimidazolidin-4-yl]methyl}-2-(3,5-difluoropyridin-2-yl)-2H-1,2,3-triazole-4-carboxamide]	190	6200
O=C1NC(=O)C(CNC(=O)c2cnn(-c3ccc(F)cc3)n2)(c2ncsc2C(F)(F)F)N1 (stereo not drawn) [Example 136, ent-N-({2,5-dioxo-4-[5-(trifluoromethyl)-1,3-thiazol-4-yl]imidazolidin-4-yl}methyl)-2-(4-fluorophenyl)-2H-1,2,3-triazole-4-carboxamide]	27	3500
